Reference: ChEMBL document CHEMBL1208688, “Synthesis and biological evaluation of novel benzodioxinocarbazoles (BDCZs) as potential anticancer agents” (Bioorg Med Chem Lett, 2010)
Activity calls are given as the source filed them. The calls are words filed in the database; no cut-off is given here.

Assays:
[1] = target: DNA topoisomerase 2-alpha (Homo sapiens) (UniProt P11388); experiment: Inhibition of topoisomerase 2
[2] = target: T1, DNA topoisomerase 1 (Homo sapiens) (UniProt P11387); experiment: Inhibition of topoisomerase 1
T1 sequence (whole entry): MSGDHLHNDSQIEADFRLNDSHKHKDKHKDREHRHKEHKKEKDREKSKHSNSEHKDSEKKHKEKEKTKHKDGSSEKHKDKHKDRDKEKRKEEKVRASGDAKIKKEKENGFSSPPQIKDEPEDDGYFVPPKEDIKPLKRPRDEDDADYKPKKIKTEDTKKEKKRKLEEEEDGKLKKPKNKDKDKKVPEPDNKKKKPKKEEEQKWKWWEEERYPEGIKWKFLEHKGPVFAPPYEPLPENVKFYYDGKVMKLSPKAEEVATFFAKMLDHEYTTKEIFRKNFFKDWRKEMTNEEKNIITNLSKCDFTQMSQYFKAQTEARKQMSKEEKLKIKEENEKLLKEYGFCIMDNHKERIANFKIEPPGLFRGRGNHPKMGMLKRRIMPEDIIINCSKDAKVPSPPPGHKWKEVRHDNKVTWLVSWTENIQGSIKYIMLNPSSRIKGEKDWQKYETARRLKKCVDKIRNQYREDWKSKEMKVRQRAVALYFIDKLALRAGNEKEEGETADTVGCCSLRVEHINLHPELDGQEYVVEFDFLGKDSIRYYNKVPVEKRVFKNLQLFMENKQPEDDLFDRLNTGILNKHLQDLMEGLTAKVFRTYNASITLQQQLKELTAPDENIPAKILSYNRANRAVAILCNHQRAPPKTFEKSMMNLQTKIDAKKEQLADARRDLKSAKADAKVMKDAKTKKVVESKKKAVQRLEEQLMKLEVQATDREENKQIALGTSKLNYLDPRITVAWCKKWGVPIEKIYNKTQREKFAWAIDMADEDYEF

Sequence of DNA topoisomerase 2-alpha (Homo sapiens) (P11388 whole entry): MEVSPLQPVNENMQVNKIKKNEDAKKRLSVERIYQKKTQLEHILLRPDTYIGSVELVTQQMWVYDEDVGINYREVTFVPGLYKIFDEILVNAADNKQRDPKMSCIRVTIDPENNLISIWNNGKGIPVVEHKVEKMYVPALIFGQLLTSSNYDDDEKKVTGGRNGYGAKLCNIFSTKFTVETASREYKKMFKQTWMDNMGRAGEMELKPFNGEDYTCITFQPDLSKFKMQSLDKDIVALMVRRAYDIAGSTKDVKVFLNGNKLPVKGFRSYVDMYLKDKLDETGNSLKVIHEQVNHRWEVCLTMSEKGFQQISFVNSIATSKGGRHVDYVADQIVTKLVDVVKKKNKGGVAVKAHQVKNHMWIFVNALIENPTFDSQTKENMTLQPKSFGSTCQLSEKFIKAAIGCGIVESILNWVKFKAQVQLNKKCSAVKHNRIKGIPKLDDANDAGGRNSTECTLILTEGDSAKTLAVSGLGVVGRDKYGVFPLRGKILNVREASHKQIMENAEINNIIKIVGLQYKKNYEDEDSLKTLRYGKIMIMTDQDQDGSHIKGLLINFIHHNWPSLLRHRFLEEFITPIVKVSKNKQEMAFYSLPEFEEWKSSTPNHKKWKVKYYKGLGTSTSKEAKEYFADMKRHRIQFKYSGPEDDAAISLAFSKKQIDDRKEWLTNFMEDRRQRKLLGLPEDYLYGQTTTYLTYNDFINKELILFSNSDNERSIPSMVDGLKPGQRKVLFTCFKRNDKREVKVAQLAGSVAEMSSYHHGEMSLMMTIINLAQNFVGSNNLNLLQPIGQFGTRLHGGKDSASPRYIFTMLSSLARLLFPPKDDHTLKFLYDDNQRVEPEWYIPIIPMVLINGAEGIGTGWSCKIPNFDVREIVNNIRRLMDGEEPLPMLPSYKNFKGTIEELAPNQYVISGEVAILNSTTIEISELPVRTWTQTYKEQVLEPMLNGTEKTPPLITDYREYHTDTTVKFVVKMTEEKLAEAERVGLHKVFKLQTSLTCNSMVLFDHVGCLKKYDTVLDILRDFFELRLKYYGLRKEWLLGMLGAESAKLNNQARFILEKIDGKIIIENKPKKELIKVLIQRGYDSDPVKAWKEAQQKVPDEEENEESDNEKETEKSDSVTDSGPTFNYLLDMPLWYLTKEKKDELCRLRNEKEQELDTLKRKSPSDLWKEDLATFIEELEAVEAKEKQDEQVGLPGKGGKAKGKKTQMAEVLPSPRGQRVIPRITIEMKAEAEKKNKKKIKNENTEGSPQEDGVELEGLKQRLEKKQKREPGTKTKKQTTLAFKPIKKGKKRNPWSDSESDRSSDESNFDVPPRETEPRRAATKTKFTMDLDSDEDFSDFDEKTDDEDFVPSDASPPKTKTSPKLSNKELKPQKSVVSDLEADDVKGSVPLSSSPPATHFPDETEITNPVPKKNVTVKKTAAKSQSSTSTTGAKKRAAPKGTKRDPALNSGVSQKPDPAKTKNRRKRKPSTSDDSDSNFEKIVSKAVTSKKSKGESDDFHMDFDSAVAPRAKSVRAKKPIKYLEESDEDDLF

inhibition [1]: inactive | inhibition [2]: inactive
SMILES: CN(C)CCn1c(=O)c2c3oc4ccccc4oc3c3[nH]c4ccc(O)cc4c3c2c1=O
